Measured values from ChEMBL document CHEMBL4627285, “Multi-step parallel synthesis enabled optimization of benzofuran derivatives as pan-genotypic non-nucleoside inhibitors of HCV NS5B” (Bioorg Med Chem Lett, 2020).
Values after ≈ are worked out from the molar mass of the structure shown.

Legend:
[1] = Solubility of compound in FASSIF at pH 6.5; format: physicochemical
[2] = Volume of distribution in Wistar rat; format: ADME; details: in vivo
[3] = Clearance in Wistar rat; format: ADME; details: in vivo
[4] = AUC in Wistar rat; format: ADME; details: in vivo
[5] = MRT in Wistar rat; format: ADME; details: in vivo

| solubility ([1]; FaSSIF, read-out: solubility) [µM] | Vd [2] [L/kg] | clearance [3] [mL/min/kg] | AUC [4] [µM·h] | MRT [5] [h] | solubility ([1]; simulated gi fluid) [µM] | Compound |
| --- | --- | --- | --- | --- | --- | --- |
| 70 (≈ 45 µg/mL) | 4.28 | 27.4 | 1.06 | 2.84 | – | CNC(=O)c1c(-c2ccc(F)cc2)oc2cc(N(C)S(C)(=O)=O)c(-c3ccc4nc(C)n(Cc5ccc(F)cc5)c(=O)c4c3)cc12 |
| – | 5.79 | 7.03 | 3.92 | 18.1 | 42 (≈ 25.8 µg/mL) | CNC(=O)c1c(-c2ccc(F)cc2)oc2cc(N(C)S(C)(=O)=O)c(-c3ccc4c(n3)-c3cc5c(F)cccc5n3CO4)cc12 [MK-8876] |
